A short description of data set [1]: AUC (infinity) in mouse. The class given is ADME, organism-based. Also noted: time infinity. Conditions: plasma.
The nature of data set [2]: Half life in mouse. Type of data set: ADME, organism-based. Conditions: in vivo.

This is an account of results in ChEMBL document CHEMBL2176866, “Progress in the development and application of small molecule inhibitors of bromodomain-acetyl-lysine interactions” (J Med Chem, 2012).

A word on the AUC(0-inf): it is the area under the concentration-time curve extrapolated to infinity. A high value points to more exposure. One may read the half-life as the time needed for the level to fall by half in the phase considered. High values mean slow loss, low ones fast loss. On to `CCNC(=O)C[C@@H]1N=C(c2ccc(Cl)cc2)c2cc(OC)ccc2-n2c(C)nnc21` [MOLIBRESIB], for which the area under the curve AUC(0-inf) in data set [1] came out at 40 µM·h. The same molecule showed a half-life in data set [2] of 1.6 h.

In data set [1], `COc1cc2c(cc1-c1c(C)noc1C)ncc1[nH]c(=O)n([C@H](C)c3ccccn3)c12` had a total exposure AUC(0-inf) of 680 µM·h. The molecule also had a half-life in data set [2] of 7.2 h.
